Like-named read-outs stand apart in the source and are kept apart here. Where a SMILES comes first, the peptide text is derived from it. Bridges are numbered along the chain shown (N, C = ends). Roman numbers before positions name the chains, in order. Where no end group is shown, it is not given here.
Tests used:
[1] = system: C.albicans SC5413; format: cell-based, Candida albicans; conditions: SC5413, 24 h
Method: (§1) To determine the candidacidal activity of the peptides, we used Candida strains obtained from the Culture collection of antimicrobial resistant microbes at Seoul Women’s University in Korea. These included three Candida albicans (CCARM 14020, 14021, 14022), Candida guillermondi and Candida tropicalis. In addition, Candida albicans SC5413 was kindly provided by Dr Jeong-Yoon Kim at the Department of Microbiology & Molecular Biology, Chungnam University, Korea. Yeast were cultured overnight at 30°C in 10 ml of yeast extract-peptone-dextrose (YPD) broth (Qbiogene), then diluted in 10 ml of YPD broth to OD600 = 0.2 and grown for an additional 4 h with shaking at 30°C until OD600 = 0.8 in order to obtain mid-log phase cultures. The peptides (Hst 5, P113, HHP1, HHP2, PH1, PH2, di-PH1, di-PH2, WP1, di-WP2, di-15Hc and di-18Hc) in this study were synthesized by using standard solid-phase synthesis protocols and were purified by reversed-phase high-performance liquid chromatography at Anygen Inc. (Korea). FITC-labeled peptides (F-Hst5, F-P113, F-HHP1, F-di-PH2, F-di-WP2 and F-di-18Hc) were also synthesized by 6-aminohexnoic acid linker at Anygen (Korea) for confocal experiments.
(§2) The candidacidal activities of the peptides were tested by using standard microdilution plate assays, radial diffusion assays and broth dilution assay slightly modified from the procedure recommended by the National Committee for Clinical Laboratory Standards. For the candidacidal assays, C. albicans cells were grown in YPD medium and washed twice with 10 mM sodium phosphate buffer (NaPB; Na2HPO4, NaH2PO4, pH 7.4). The cells (1 x 10^6) were then mixed with different concentrations of peptides and incubated at 30°C with constant shaking for 60 min. For energy depletion experiments, cells were pre-incubated with 10 mM NaPB containing 5 mM NaN3 at 30°C for 60 min before the addition of peptides. The cell suspensions were diluted in 10 mM NaPB and aliquots of 500 cells were spread onto YPD agar plates then incubated for 24 h at 30°C to visualize the surviving colonies. Cell survival was expressed as a percentage of that for the control, and the loss of viability was calculated as [1 x (number of colonies from peptide-treated cells/number of colonies from control cells)] x 100. Candidacidal assays were performed in triplicate. For the radial diffusion assay, C. albicans cells were grown in YPD medium overnight and washed twice with 10 mM NaPB. Washed yeast-phase C. albicans cells (1 x 10^6 CFU) were trapped in thin underlay gels containing 9 mM sodium phosphate, 1 mM sodium citrate buffer, 1% (wt/vol) agarose (A6013; Sigma), and 0.3 mg of Sabouraud dextrose broth (Difco)/ml. After incubation at 37°C for 3 h, a 10 ml overlay gel of 1% agarose and 6% Sabouraud dextrose broth was poured on the underlay gel and then the plates were incubated overnight at 37°C. The clear-zone diameters were measured to the nearest 0.1 mm and graphed against the peptide concentration. Zone diameters were expressed in units (0.1 mm = 1 unit). For the broth dilution assay, the Candida strains were cultured in LYM broth for 18 h at 30°C. The numbers of yeasts were counted using a hemocytometer. Stock peptide solutions were prepared to a concentration of 320 μg/ml in distilled water, and were then serially diluted twofold, to 5 μg/ml. 100 μl aliquots of the diluted culture media containing candida cells (1 x 10^3) were dispensed into the wells of 96-well polypropylene microtiter plates (Costar 3879, Corning, NY), to which peptide solution (11 μl) was then added. In the experiments conducted to assess the candidacidal activity of peptides in the presence of salt, we used LYM supplemented with 150 mM NaCl for the culture medium, which was mixed with the peptide solution. The antifungal activities were evaluated after 24 h of incubation at 30°C by the observation of visible turbidity the wells. […]

[2] = system: C.albicans CCARM 14021; format: cell-based, Candida albicans
Method: as §1, §2

[3] = system: C.albicans CCARM 14022; format: cell-based, Candida albicans
Method: as §1, §2

[4] = system: C.albicans CCARM 14020; format: cell-based, Candida albicans; conditions: CCARM 14020, 24 h
Method: as §1, §2

[5] = system: C. guilliermondi CCARM 14018; format: cell-based; conditions: CCARM 14018, 24 h
Method: as §1, §2

[6] = system: all tested Candida strains; format: cell-based; conditions: 4 h
Method: as §1, §2

[7] = broth dilution, LYM broth, 24 h at 30°C, interval a–b

| Compound | MICs [1] [µg/mL] | MICs ([2]; CCARM 14021, 24 h) [µg/mL] | MICs ([3]; CCARM 14022, 24 h) [µg/mL] | MICs [4] [µg/mL] | MICs [5] [µg/mL] | MIC values [6] [µg/mL] | MICs [3, 7] | MICs [2, 7] |
| --- | --- | --- | --- | --- | --- | --- | --- | --- |
| CC(C)C[C@H](NC(=O)CNC(=O)[C@H](Cc1c[nH]cn1)NC(=O)[C@H](Cc1c[nH]cn1)NC(=O)[C@H](CCCNC(=N)N)NC(=O)[C@H](CCCCN)NC(=O)[C@H](C)N)C(=O)N[C@@H](CC(N)=O)C(=O)N[C@@H](CSSC[C@H](NC(=O)[C@H](CC(N)=O)NC(=O)[C@H](CC(C)C)NC(=O)CNC(=O)[C@H](Cc1c[nH]cn1)NC(=O)[C@H](Cc1c[nH]cn1)NC(=O)[C@H](CCCNC(=N)N)NC(=O)[C@H](CCCCN)NC(=O)[C@H](C)N)C(=O)N[C@@H](C)C(=O)N[C@@H](CCCCN)C(=O)NCC(=O)N[C@H](C(=O)N[C@@H](CC(C)C)C(=O)N[C@@H](C)C(N)=O)C(C)C)C(=O)N[C@@H](C)C(=O)N[C@@H](CCCCN)C(=O)NCC(=O)N[C@H](C(=O)N[C@@H](CC(C)C)C(=O)N[C@@H](C)C(N)=O)C(C)C [di-PH1] (I: H-AKRHHGLNCAKGVLA-NH2 / II: H-AKRHHGLNCAKGVLA-NH2; disulfide I:9-II:9 (inferred); N-terminus assumed) | 16 to 32 | 4 to 8 | 4 to 8 | 16 to 32 | – | – | – | – |
| AKRHHGLNCAKGVLA-NH2 [PH1] | 16 to 32 | 8 to 16 | 8 to 16 | 16 to 32 | – | – | – | – |
| WLNALLHHGYKRKFH-NH2 [HHP1] | 2 to 4 | 2 to 4 | 4 to 8 | 2 to 4 | 1 to 2 | 2 to 4 | – | – |
| WLNAKRHHGYKRKFH-NH2 [WP1] | 4 to 8 | 8 to 16 | – | 4 to 8 | – | – | 32< μg/ml | – |
| AKRHHGLNCAKFH-NH2 [PH2] | 1 to 2 | 1 to 2 | 8 to 16 | 1 to 2 | – | – | – | – |
| ALLHHGYKRKFH-NH2 [HHP2] | 16 to 32 | – | – | 8 to 16 | – | – | 32< μg/ml | 32< μg/ml |

From article PMC4769088, “Antifungal Activity and Action Mechanism of Histatin 5-Halocidin Hybrid Peptides against Candida ssp” (PLoS ONE, 2016)
